Measurements from patent publication US8394355B2, “Use of UTP for the diagnosis of stenoses and other conditions of restricted blood flow” (P2 science Aps, priority 2009, dated 2013).
Where “and” joins values, the source holds several entries; their conditions need not be identical. Identical values can stand only once. Entries after “also recorded” stand apart in the source; their conditions may differ.

Key:
Format in all cases: in vivo
[1] = system: coronary arteries in humans with coronary artery disease; assay: FFR during continuous intracoronary infusion via microcatheter (Example 3); conditions: for % of patients with FFR ≦ 0.8 / adverse effects during IC continuous infusion: microcatheter study; for adverse effects during IC continuous infusion: 10 patients; for optimal dose for achieving maximal coronary hyperemia and thereby the lowest FFR: FIG. 5
From the text: As described previously, inducing stable maximal coronary hyperemia is essential for measurement of fractional flow reserve (FFR). This second experiment in a similar patient group evaluated the differential efficacy of intracoronary (IC) continuous adenosine infusion vs. IC continuous uridine triphosphate (UTP) infusion via a microcatheter for inducing steady state maximal coronary hyperemia. The present study was designed to evaluate the safety and effectiveness of the equimolar concentrations of UTP vs. adenosine infusion for use in the FFR method. Time to achievement of steady-state, impact of maximal hyperemia (lowest FFR) for the different compounds and side effects were recorded in 10 patients with intermediate coronary lesions. FFR was measured consecutively by IC continuous adenosine or UTP infusion using a microcatheter to bypass the proximal pressure transducer. The IC microcatheter (Progreat Microcatheter System, Terumo, Japan) used was positioned at the coronary ostium, and FFR was then measured by increasing IC continuous adenosine or UTP infusion rates in equimolar concentrations from 10 to 400 μg/min via the microcatheter.
After femoral catheterization, coronary angiography was performed with the standard femoral approach. Heparin was administered according to standard procedures.
Intracoronary nitroglycerin (0.2-0.3 mg) was administered before the control angiograms were made in the microcatheter study. Heart rate and arterial pressure were continuously monitored throughout the procedure. After a guiding catheter (5F catheter, Cordis Corp.) without side holes was positioned at the coronary ostium, coronary angiograms were obtained from multiple projections. Quantitative coronary analysis was performed by using an independent analyzer blinded to the results of FFR using a computer-assisted, automated computerized edge-detection algorithm (Siemens Medical System). The external diameter of the contrast-filled catheter was used as a calibration standard. Minimal luminal diameter, vessel diameter of the reference segment, and the percent diameter stenosis at end diastole were measured from the worst-view trace. After coronary angiography, a 0.014-in. pressure wire (Combowire, Volcano Corporation, US) was advanced distally to the stenosis through a 6F guiding catheter. In the microcatheter study, an IC bolus injection of nitroglycerin (0.2-0.3 mg) was given before advancing the pressure wire through the stenosis in order to avoid any mechanically-induced coronary vasoconstriction. The pressure wire was externally calibrated and then advanced to the distal tip of the catheter. It was verified whether equal pressure was recorded at both the catheter and the pressure wire. The pressure wire was advanced through the coronary catheter, introduced into the coronary artery, and positioned distal to the stenosis.
Distal coronary pressure (Pd) and proximal coronary pressure (Pa) were measured at baseline and at maximal hyperemia (adenosine vs. UTP) simultaneously. Fractional flow reserve was calculated by dividing mean Pd by mean Pa during maximal hyperemia. The time to optimal vasodilatation (time needed to reach >90% of the minimal value of Pd/Pa after administration of the adenosine or UTP) was computed in order to assess whether procedure time was prolonged. The hyperemic stimuli were given as follows: an IC continuous infusion of adenosine or UTP in incremental doses of 10, 20, 40, 80, 160, 240, […] and 400 μg/min, in both the left and right coronary artery depending upon lesion anatomy. The dosages were increased stepwise by IC continuous infusion with the microcatheter where the stepwise dose increase was recorded continuously without breaks. After each stepwise increase, FFR and CFR were recorded automatically. The next hyperemic stimulus UTP vs adenosine was given when Pa, Pd, and heart rate returned to their baseline values.

[2] = system: coronary arteries in humans with coronary artery disease; assay: FFR during continuous intracoronary infusion via guiding catheter (Example 2); parameters: key: FFR = Pd/Pa (distal/proximal coronary pressure ratio); conditions: Example 5 summary; Ttest 0.0034 adenosine vs UTP
[3] = system: coronary arteries in humans with coronary artery disease; assay: FFR during continuous intracoronary infusion via microcatheter (Example 3); conditions: individual patients, 320 μg/min

| Compound | FFR Mean ([1]; mean of patients, 10 μg/min) | FFR Mean ([1]; mean, 20 μg/min) | FFR Mean ([1]; mean, 40 μg/min) | FFR Mean ([1]; mean, 80 μg/min) | FFR Mean ([1]; mean, 160 μg/min) | FFR Mean ([1]; mean, 240 μg/min) | FFR Mean ([1]; mean, 320 μg/min) | FFR Mean ([1]; mean, 400 μg/min) | % of patients with FFR ≦ 0.8 ([1]; 80 μg/min (n = 8)) | % of patients with FFR ≦ 0.8 ([1]; 160 μg/min (n = 6)) | % of patients with FFR ≦ 0.8 ([1]; 320 μg/min (n = 9)) | % of patients with FFR ≦ 0.8 ([1]; 400 μg/min (n = 3)) | adverse effects during IC continuous infusion [1] | optimal dose for achieving maximal coronary hyperemia and thereby the lowest FFR ([1]; microcatheter) | FFR Mean [2] | further results |
| --- | --- | --- | --- | --- | --- | --- | --- | --- | --- | --- | --- | --- | --- | --- | --- | --- |
| O=c1ccn([C@@H]2O[C@H](COP(=O)(O)OP(=O)(O)OP(=O)(O)O)C(O)[C@@H]2O)c(=O)[nH]1 (stereo partly shown) [UTP, Uridine 5-triphosphate] | 0.84 | 0.83 | 0.83 | 0.78 | 0.79 | 0.79 | 0.79 | 0.79 | 62 % of patients | 50 % of patients | 44 % of patients | 33 % of patients | None of the patients had chest pain in the UTP group; also recorded: All patients tolerated UTP without side effects | approximately 80 μg/min | 0.72 | FFR in comparison to IC adenosine infusion ([1]; P<0.05): significantly lower; steady-stable hyperemia lasted longer compared to adenosine infusion ([1]; in vivo): ~20 s; FFR ([1]; individual patients (row = patient no.), IC continuous infusion 10 μg/min, microcatheter): 0.72 and 0.95 and 0.84; FFR ([1]; individual patients, 20 μg/min): 0.71 and 0.95; FFR ([1]; individual patients, 40 μg/min): 0.72 and 0.95 and 0.83; FFR ([1]; individual patients, 80 μg/min): 0.73 and 0.79 and 0.88 and 0.56 and 0.71 and 0.97 and 0.83; FFR ([1]; individual patients, 160 μg/min): 0.90 and 0.73 and 0.79 and 0.86 and 0.56 and 0.71 and 0.92 and 0.83; FFR ([1]; individual patients, 240 μg/min): 0.89 (2×) and 0.73 and 0.79 and 0.87 and 0.55; FFR ([1]; individual patients, 400 μg/min): 0.90 and 0.92 and 0.56; induction time to optimal coronary hyperemia ([1]; versus IC continuous adenosine infusion): shorter; FFR [3]: 0.90 (2×) and 0.89 and 0.72 and 0.77 and 0.86 and 0.56 and 0.69 and 0.84 |
| Nc1ncnc2c1ncn2[C@@H]1O[C@H](CO)[C@@H](O)[C@H]1O [adenosine] | 0.90 | 0.88 | 0.86 | 0.84 | 0.82 | 0.81 | 0.82 | 0.82 | 37 % of patients | 33 % of patients | 44 % of patients | 33 % of patients | nearly all felt angina in the adenosine group; also recorded: some patients had a transient second degree A-V block; also recorded: nearly all patients experienced side effects | ~240 µg/min | 0.77 | FFR ([1]; individual patients (row = patient no.), IC continuous infusion 10 μg/min, microcatheter, listed as ADO): 0.81 and 0.94 and 0.86 and 0.99; FFR ([1]; individual patients, 20 μg/min, listed as ADO): 0.75 and 0.94 and 0.95; FFR ([1]; individual patients, 40 μg/min, listed as ADO): 0.73 and 0.94 (2×) and 0.82; FFR ([1]; individual patients, 80 μg/min, listed as ADO): 0.83 and 0.95 and 0.76 and 0.71 and 0.94 and 0.82 and 0.88; FFR ([1]; individual patients, 160 μg/min, listed as ADO): 0.80 and 0.95 (2×) and 0.60 and 0.68 and 0.85 and 0.96 and 0.75; FFR ([1]; individual patients, 240 μg/min, listed as ADO): 0.81 and 0.94 and 0.60 and 0.87 and 0.91 and 0.71; FFR ([1]; individual patients, 400 μg/min, listed as ADO): 0.56 and 1.01 and 0.89; FFR ([3]; listed as ADO): 0.79 and 0.96 and 0.54 and 0.70 (2×) and 0.95 and 0.86 and 1.02 and 0.89 |
